Data set [1] in a line: LC retention time (Atlantis T3, 5-95% MeOH gradient, 0.1% formic acid); higher = more retained / less polar. The method in brief: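 Retention times were recorded for reference standards (purity ≥ 95%) on a polar reversed-phase C18 column (Atlantis T3, 3 × 150 mm, 3 μm) at 0.3 mL/min. Elution used water and methanol, each with 0.1% formic acid, in a gradient from 5 to 95% methanol over 17.5 min. Detection was by high-resolution tandem mass spectrometry on a QExactive Plus, with positive and negative electrospray in separate runs. Peaks were found and integrated in TraceFinder (5 ppm tolerance, at least three points per peak) and then checked by hand.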

A short description of data set [2]: absolute recovery over vacuum-assisted evaporative concentration; higher = better recovery. To be noted: enrichment method: VEC. The method in brief: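 Standards were spiked into water samples before concentration, after concentration or not at all; volumes were 6 mL influent, 15 mL effluent and 60 mL surface or nanopure water. Spiking levels were 200 ng/L for nanopure and surface water and 1000 ng/L for wastewater, adjusted by class and compound. After evaporation at 55 °C and 20 mbar to about 0.3 mL, samples were brought to 0.4 mL, centrifuged, given internal standards and analysed by LC-HRMS/MS. Absolute recovery equals (response ratio pre − unspiked)/(post − unspiked) × 100, based on averages of ≥ 2 replicates.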

Data set [3] can be described thus: absolute recovery over mixed-bed multilayer solid-phase extraction; higher = better recovery. The following applies: enrichment method: SPE. Put shortly:
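Wastewater (100–250 mL, adjusted to pH 6.5 and glass-fibre filtered) or 1000 mL unfiltered nanopure water was loaded on a three-layer mixed-bed cartridge and eluted with basic then acidic ethyl acetate/methanol. Standards were spiked before extraction, after it, or not at all, at 200 ng/L (water) or 1000 ng/L (wastewater), with class exceptions. Internal standards were added afterwards, then LC-HRMS/MS ran in both ionisation modes. Absolute recovery compares background-corrected response ratios of pre- versus post-spiked samples, averaged over at least two replicates.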

Regarding `O=C(NCC1CCCC[NH2+]1)c1cc(OCC(F)(F)F)ccc1OCC(F)(F)F` (centres undefined) [Flecainid], the LC retention time in data set [1] was 14.5 min. Further, the absolute recovery in data set [2] (wastewater effluent) was found to be 105%; in data set [2] (wastewater influent), 106%.

On to `C#CCN1C(=O)COc2cc(F)c(N3C(=O)C4=C(CCCC4)C3=O)cc21` [Flumioxazin], for which the LC retention time in data set [1] was determined as 18.8 min. The absolute recovery in data set [3] (nanopure water) turned out to be 99.7%; in data set [3] (surface water), 77.4%; in data set [3] (wastewater effluent), 91.6%; in data set [3] (wastewater influent), 64%.

Take `CC(C)n1c(C=CC(O)CC(O)CC(=O)[O-])c(-c2ccc(F)cc2)c2ccccc21` (centres undefined) [Fluvastatin]: the LC retention time in data set [1] was found to be 20.8 min. The absolute recovery stood at 105% in data set [2] (wastewater effluent) and 72.3% in data set [2] (wastewater influent).

In data set [1], `NC(=O)N=C(N)N` [Guanylurea] registered an LC retention time of 3.13 min. Further, the absolute recovery in data set [3] (nanopure water) worked out at 42.6%.

Consider `O=C(CCC[NH+]1CCC(O)(c2ccc(Cl)cc2)CC1)c1ccc(F)cc1` [Haloperidol], for which the LC retention time in data set [1] was determined as 15 min. Moreover, the absolute recovery in data set [2] (wastewater effluent) was 114%; in data set [2] (wastewater influent) it was 118%.

The molecule `CC(C(=O)[O-])c1cccc(C(=O)c2ccccc2)c1` (centres undefined) [Ketoprofen] had an LC retention time in data set [1] of 18.8 min. Further, the absolute recovery in data set [2] (wastewater effluent) is 110%; in data set [2] (wastewater influent), 96.4%.

In the case of `Cc1c(OCC(F)(F)F)ccnc1CS(=O)c1nc2ccccc2[nH]1` (centres undefined) [Lansoprazole], in data set [1], the LC retention time turned out to be 17.1 min. Also, the absolute recovery in data set [2] (wastewater effluent) came to 86.8%; in data set [2] (wastewater influent) it was 100%.

As for `O=c1ccc(=O)[nH][n-]1` [Maleic-hydrazide], the LC retention time in data set [1] is 5.88 min. In data set [3] (surface water), this molecule returned an absolute recovery of 12.8%.

In the case of `Nc1nc(N)[nH+]c(N)n1` [Melamin], in data set [1], the LC retention time was 3.5 min. This molecule also yielded an absolute recovery in data set [3] (nanopure water) of 21.3%.

Molecule `CCC(=O)C(CC(C)[NH+](C)C)(c1ccccc1)c1ccccc1` (centres undefined) [Methadon] registered an LC retention time in data set [1] of 15.9 min. The absolute recovery was 105% in data set [2] (wastewater effluent) and 100% in data set [2] (wastewater influent).

Molecule `CNC(=O)Oc1cc(C)c(S(C)=O)c(C)c1` (centres undefined) [Methiocarb-sulfoxide] gave an LC retention time in data set [1] of 13.7 min. The absolute recovery in data set [3] (nanopure water) is 75.7%; in data set [3] (surface water), 83%; in data set [3] (wastewater effluent) it was 77.8%; in data set [3] (wastewater influent), 58.2%.

For the molecule `CC[N-]S(=O)(=O)C(F)(F)C(F)(F)C(F)(F)C(F)(F)C(F)(F)C(F)(F)C(F)(F)C(F)(F)F` [N-EtFOSA], in data set [1], the LC retention time was 22.8 min. Moreover, the absolute recovery came to 57.6% in data set [3] (surface water) and 66.9% in data set [3] (wastewater effluent).

The molecule `CN(CC(=O)[O-])S(=O)(=O)C(F)(F)C(F)(F)C(F)(F)C(F)(F)C(F)(F)C(F)(F)C(F)(F)C(F)(F)F` [N-MeFOSAA] displayed an LC retention time in data set [1] of 23.3 min. The absolute recovery in data set [3] (surface water) was 80%; in data set [3] (wastewater effluent) it was 95.4%.

The molecule `C[N-]S(=O)(=O)C(F)(F)C(F)(F)C(F)(F)C(F)(F)C(F)(F)C(F)(F)C(F)(F)C(F)(F)F` [N-MeFOSA] gave an LC retention time in data set [1] of 22.3 min. Besides, the absolute recovery amounted to 50.3% in data set [3] (surface water) and 61.7% in data set [3] (wastewater effluent).

In data set [1], `O=C([O-])C(F)(F)C(F)(F)C(F)(F)C(F)(F)C(F)(F)F` [PFHxA] registered an LC retention time of 18.8 min. Also, the absolute recovery amounted to 95.2% in data set [2] (wastewater effluent) and 89.4% in data set [2] (wastewater influent).

`O=C([O-])C(F)(F)C(F)(F)C(F)(F)C(F)(F)C(F)(F)C(F)(F)C(F)(F)F` [PFOA] had an LC retention time in data set [1] of 20 min. Moreover, the absolute recovery amounted to 87.3% in data set [2] (wastewater effluent) and 90% in data set [2] (wastewater influent).

In data set [1], `O=C([O-])C(F)(F)C(F)(F)C(F)(F)C(F)(F)F` [PFPA] registered an LC retention time of 12.4 min.

In data set [1], `C[NH2+]CC(O)c1cccc(O)c1` (centres undefined) [Phenylephrine] returned an LC retention time of 5.47 min. Besides, the absolute recovery is 83.2% in data set [3] (nanopure water), 82% in data set [3] (surface water), 78.5% in data set [3] (wastewater effluent) and 86.1% in data set [3] (wastewater influent).

The molecule `CCc1cc(C)cc(CC)c1-c1c(OC(=O)C(C)(C)C)n2n(c1=O)CCOCC2` [Pinoxaden] had an LC retention time in data set [1] of 21.2 min. The absolute recovery was determined as 51.6% in data set [2] (wastewater effluent) and 10.7% in data set [2] (wastewater influent).

Molecule `COc1cc(NC(C)CCC[NH3+])c2ncccc2c1` (centres undefined) [Primaquine] registered an LC retention time in data set [1] of 14.4 min. In addition, the absolute recovery in data set [2] (wastewater effluent) was determined as 60.5%; in data set [2] (wastewater influent) it was 37.5%.

Regarding `CCCN(CCC)C(=O)SCc1ccccc1` [Prosulfocarb], the LC retention time in data set [1] came to 11.5 min. Moreover, the absolute recovery in data set [3] (nanopure water) was 38.9%; in data set [3] (surface water) it was 35.1%; in data set [3] (wastewater effluent), 43.2%.

`Oc1ccc(C=Cc2cc(O)cc(O)c2)cc1` [Resveratrol] displayed an LC retention time in data set [1] of 15.5 min. Further, the absolute recovery was 57.8% in data set [3] (nanopure water), 66.6% in data set [3] (surface water), 48.4% in data set [3] (wastewater effluent) and 68.9% in data set [3] (wastewater influent).

The molecule `CCC(C)(C)C(=O)OC1CC(C)C=C2C=CC(C)C(CCC3CC(O)CC(=O)O3)C21` (centres undefined) [Simvastatin] showed an LC retention time in data set [1] of 22.9 min.

Regarding `[NH3+]C(CC(=O)N1CCn2c(nnc2C(F)(F)F)C1)Cc1cc(F)c(F)cc1F` (centres undefined) [Sitagliptin], in data set [1], the LC retention time is 12.6 min. Besides, the absolute recovery in data set [3] (nanopure water) amounted to 53.8%; in data set [3] (surface water), 67.1%.

The values above are taken from the supplement of paper PMC6470124.
